Assay results published in the supplement of paper PMC8976852.
± gives the standard deviation of the averaged measurements.

Key:
Assay in all cases: activity (1 - area under the dose-response curve within the screened range) (fraction); higher = more sensitive
Details in all cases: treatment time: 72 h
[1] = test system: HCM-SANG-0270-C20 (colorectal cancer organoid)
Procedure: (§1)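 Patient-derived cancer organoids (colorectal and oesophageal, HCM-SANG models) were grown for up to 6 months in 5% or 80% ECM (BME-2), then seeded in 384-well plates on an ECM layer and treated with 72 compounds for 3 days. Each compound used a 7-point half-log dilution series spanning a 1000-fold range, in technical triplicate and biological duplicate. Dose-response curves were fitted with a non-linear mixed effects model; fits with RMSE > 0.3 were removed, and activity = 1 - AUC within the screened dose range (0 = no activity, 1 = maximum).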

[2] = test system: HCM-SANG-0291-C15 (oesophageal cancer organoid)
Procedure: as §1

[3] = test system: HCM-SANG-0266-C20 (colorectal cancer organoid)
Procedure: as §1

[4] = test system: HCM-SANG-0532-C20 (colorectal cancer organoid)
Procedure: as §1

[5] = ECM percentage in culture prior to screening 5 %
[6] = ECM percentage in culture prior to screening 80 %

Compound | activity [1, 5] | activity [1, 6] | activity [2, 5] | activity [2, 6] | activity [3, 5] | activity [3, 6] | activity [4, 5] | activity [4, 6]
CCN(CC)CCCCNc1ncc2cc(-c3cc(OC)cc(OC)c3)c(NC(=O)NC(C)(C)C)nc2n1 | 0.0417 ± 0.029 | 0.0362 ± 0.015 | 0.0598 ± 0.031 | 0.0496 ± 0.0089 | 0.0628 ± 0.031 | 0.0486 ± 0.023 | 0.0936 ± 0.015 | 0.0708 ± 0.015
CCc1cncnc1N1CCN(Cc2nc3ccc(C(F)(F)F)cc3[nH]2)CC1 | 0.127 ± 0.026 | 0.162 ± 0.031 | 0.0688 ± 0.038 | 0.0744 ± 0.019 | 0.206 ± 0.033 | 0.155 ± 0.029 | 0.222 ± 0.04 | 0.426 ± 0.041
COc1cc2c(Nc3ccc(NC(=O)c4ccccc4)cc3)ncnc2cc1OCCCN1CCOCC1 | 0.102 ± 0.054 | 0.106 ± 0.06 | 0.0708 ± 0.031 | 0.0657 ± 0.034 | 0.228 ± 0.027 | 0.212 ± 0.038 | 0.184 ± 0.07 | 0.166 ± 0.022
C[C@@]1(C(=O)Nc2ccc(F)nc2)CCCN1c1nc(Nc2cc(C3CC3)n[nH]2)c2cccn2n1 | 0.18 ± 0.086 | 0.22 ± 0.11 | 0.126 ± 0.039 | 0.172 ± 0.056 | 0.455 ± 0.056 | 0.41 ± 0.056 | 0.279 ± 0.091 | 0.302 ± 0.035
Cc1cccc(-c2[nH]c(C(C)(C)C)nc2-c2ccc3c(c2)OCO3)n1 | 0.0741 ± 0.023 | 0.0613 ± 0.046 | 0.0256 ± 0.0074 | 0.0336 ± 0.018 | 0.0398 ± 0.022 | 0.0534 ± 0.016 | 0.0437 ± 0.015 | 0.0531 ± 0.017
Cn1cc(C2=C(c3ccc(Cl)cc3Cl)C(=O)NC2=O)c2ccccc21 | 0.0629 ± 0.02 | 0.0482 ± 0.021 | 0.0549 ± 0.019 | 0.0522 ± 0.022 | 0.0916 ± 0.037 | 0.0697 ± 0.056 | 0.0778 ± 0.033 | 0.0951 ± 0.05
O=C(Nc1ccc2[nH]nc(-c3ccncc3)c2c1)[C@@H]1CCN(CC(=O)N2CCN(c3ccc(-c4ncccn4)cc3)CC2)C1 | 0.159 ± 0.078 | 0.0818 ± 0.065 | 0.236 ± 0.027 | 0.224 ± 0.055 | 0.388 ± 0.086 | 0.155 ± 0.12 | 0.201 ± 0.13 | 0.272 ± 0.056
O=c1cc(-c2cccc3c2Sc2ccccc2S3)oc(N2CCOCC2)c1 | 0.0345 ± 0.015 | 0.0384 ± 0.0084 | 0.068 ± 0.034 | 0.0493 ± 0.031 | 0.0362 ± 0.021 | 0.0433 ± 0.027 | 0.0709 ± 0.021 | 0.037 ± 0.01
O=c1[nH]cc(F)c(=O)[nH]1 [5-Fluorouracil] | 0.123 ± 0.031 | 0.103 ± 0.075 | 0.0848 ± 0.043 | 0.063 ± 0.035 | 0.137 ± 0.068 | 0.12 ± 0.061 | 0.0766 ± 0.035 | 0.121 ± 0.044
CN(C)CCCOc1ccc(-c2ccc3ncc4c(c3c2)n(C2CCOCC2)c(=O)n4C)cn1 [AZD0156] | 0.0254 ± 0.013 | 0.0244 ± 0.0078 | 0.0259 ± 0.013 | 0.0316 ± 0.022 | 0.0443 ± 0.024 | 0.0475 ± 0.024 | 0.0433 ± 0.022 | 0.0427 ± 0.017
COc1cc(CCc2cc(NC(=O)c3ccc(N4CC(C)NC(C)C4)cc3)n[nH]2)cc(OC)c1 (centres undefined) [AZD4547] | 0.0358 ± 0.023 | 0.0323 ± 0.017 | 0.0191 ± 0.001 | 0.0289 ± 0.014 | 0.0268 ± 0.015 | 0.0233 ± 0.0077 | 0.0579 ± 0.039 | 0.0368 ± 0.013
Cc1cc([C@@H](C)Nc2ccccc2C(=O)O)c2nc(N3CCOCC3)cc(=O)n2c1 [AZD6482] | 0.0274 ± 0.021 | 0.0245 ± 0.008 | 0.0199 ± 0.0028 | 0.0269 ± 0.0093 | 0.042 ± 0.03 | 0.0421 ± 0.017 | 0.0367 ± 0.021 | 0.0291 ± 0.011
C[C@@H]1COCCN1c1cc(C2([S@](C)(=N)=O)CC2)nc(-c2cc[nH]c3nccc2-3)n1 [AZD6738] | 0.09 ± 0.039 | 0.0864 ± 0.052 | 0.199 ± 0.027 | 0.211 ± 0.037 | 0.185 ± 0.037 | 0.178 ± 0.033 | 0.116 ± 0.065 | 0.108 ± 0.026
